How the values were obtained:
Klebsiella = assay: Anti-infectious activity with respect to Klebsiella, young mice of 7 days, s.c. treatment and s.c. infection; type: in vivo; details: for Number of survivors at D + 8: controls 0 of 53; for Number of survivors at D + 5: controls 1 of 53; for Number of survivors at D + 3: controls 5 of 53
Procedure: In these trials, the product studied was administered, by the sub-cutaneousroute, 24 hours before the infecting test. For the latter, the infecting dose was 1.2.10^3 Klebsiella; it was also administered by the sub-cutaneous route.

[1] = Sensitisation trials: plantar injection in IFA or CFA, dermal injection three weeks later
Procedure: These trials were undertaken to study the possible immunogenic properties of the products according to the invention. At the same time, sensitisation tests with respect to various products were carried out.
The tests were carried out on guinea-pigs. The preparations shown in column 1 of the Table of the results were injected by the plantar route. They comprise 100 μg of the product tested incorporated in incomplete FREUND adjuvant (IFA) or in complete FREUND adjuvant (CFA).
Three weeks after this first injection, 50 μg of the products indicated in the upper portion of the Table of results were injected by the dermal route. Possible reactions were observed 48 hours later.

Klebsiella pneumoniae = assay: Anti-infectious activity with respect to Klebsiella, mice treated i.v. 24 hours before i.m. inoculation; type: in vivo; details: for Number of survivors at D + 8: controls 4 of 32; for Number of survivors at D + 5: controls 7 of 32; for Number of survivors at D + 3: controls 16 of 32; for Percentage of protection: difference in percentages of survivors versus control group
Excerpt: The testing procedure is described in the article of CHEDID L. and Col., Proc. Natl. Acad. Sci. USA, 1977, 74, 2089.
It was shown that a dose of about 10^4 Klebsiella pneumoniae, injected by the intramuscular route in mice, results in the progressive death of a considerable part, if not the whole, of the animals in the week following the inoculation. After eight days, the survival of the animals was definitely achieved.
The survival of groups of mice inoculated under the above-indicated conditions and treated by means of the products according to the invention, was recorded.
For these trials, hybrid mice (C57Bl/6 x AKR)F1 raised in the PASTEUR […], from strains derived from the C.N.R.S. breeding station at ORLEANS were used.
The infection by Klebsiella pneumoniae, a strain of the 2-capsular type, biotype d, was done from a culture of 16 hours in a medium for pneumococci (No. 53515, […] PASTEUR). The infecting dose was 1.5.10^4 Klebsiella; it was administered by the intramuscular route.
The administration of the tested product was carried out by the intravenous route in 0.2 ml of apyrogenic physiological solution, the controls receiving the solution alone. It was carried out 24 hours before the inoculation.
The percentage of protection indicated is the difference in the percentages of survivors of the treated group with respect to the control group.

[2] = s.c. at D-1, 1 μg, 39 young mice
[3] = s.c. at D-1, 10 μg, 75 young mice
[4] = i.v. at D-1, 1 μg (weight of glycopeptide), 24 mice
[5] = i.v. at D-1, 10 μg (weight of glycopeptide), 32 mice

## multi-[poly-(N-acetyl-muramyl-D-alanyl-D-isoglutaminyl)-D,L-alanyl]-poly-L-lysine [MDP(D-D)(A--L)]
Klebsiella; [2]
  Number of survivors at D + 8: 3
  Number of survivors at D + 5: 6
  Number of survivors at D + 3: 19
Klebsiella; [3]
  Number of survivors at D + 8: 18
  Number of survivors at D + 5: 28
  Number of survivors at D + 3: 50
[1]; administered with ovalbumin
  adjuvant to specific immunity: is not adjuvant to specific immunity
[1]; guinea-pigs
  sensitivity reaction with respect to itself and to adjuvant agents like MDP: does not elicit a sensitivity reaction
Klebsiella pneumoniae; [4]
  Number of survivors at D + 8: 6
  Number of survivors at D + 5: 7
  Number of survivors at D + 3: 15
  Percentage of protection: 9%
Klebsiella pneumoniae; [5]
  Number of survivors at D + 8: 17
  Number of survivors at D + 5: 19
  Number of survivors at D + 3: 26
  Percentage of protection: 38%
